Measured values published in patent US7728146B2, “Enzyme inhibitors” (Probiodrug AG, priority 2006, dated 2010).

Tests used:
male Sprague Dawley rats [1] = experiment: Tetradic encounter test; type: in vivo, rat; conditions: acute
Procedure: Example 130b was dissolved in 0.5% Natrosol and administered acutely p.o. (gavage) 40 minutes before behavioural testing. Example 130b was administered in doses of 0.3, 1.0 and 3.0 mg/kg in a volume of 5 ml/kg, each.
Chlordiazepoxide was dissolved in 0.9% NaCl and administered acutely i.p. 30 minutes before behavioural testing with a dose of 3 mg/kg in a volume of 1 ml/kg (test group TG 2, see below). The solution was prepared freshly every day.
(§1) 216 male Sprague Dawley rats. The animals were 6 weeks old at the start of the study. They were housed in groups of 4 animals (“acute animals”) or in single cages (“chronic animals”) at 12 h/12 h light/dark (start of the light phase at 2 a.m.), 20° C., 60% rH. Animals were provided by Elevage Janvier, France.
Animals were kept in group cages until compound administration. Each two animals derived from the same home cage and were treated the same way. During the time from compound administration to the beginning of the test, animals were kept in single cages for 40 minutes.
The tetradic encounter test was conducted according to the protocol of Wolffgramm (1990). Four rats were placed for 15 minutes in an open field arena of 1 m×1 m; all four animals of an encounter group were treated in the same way, they received either test compound, reference compound, or vehicle. Each two animals were from the same home cage. The open field was illuminated by dim red light (3-4 Lux). Rats were familiar with the open field and their encounter partners by means of three prior training sessions (no compound administration). Testing (compound administration) started at 2:20 p.m. (dark phase). All animals were marked individually by means of black symbols on their back. Behaviour was recorded on videotapes. Each animal was tested once.
Raw data were provided as videotapes and protocol sheets of application and test time. From the videotapes the trajectory of the animal's movement was tracked and coordinates and time stamps were continually noted in a data file. The resulting file was transferred to a computer program for further analysis.
The following parameters were calculated for the whole test phase (15 minutes): • Total distance travelled (m) • Use of available space (%) • Portion of time spent in the centre (%) • Portion of time spent in the corners (%) • Mean distance to the encounter mates (cm) • Distribution of spatial distance to the encounter mates • Dynamics of spatial distance to the encounter mates (cross-distance course) Social Behaviour
Raw data were provided as videotapes and protocol sheets of application and test time. From the videotapes the social behaviour of each rat was rated by an experienced ethologist using a list of predefined behavioural patterns. The observer was blind to the animal's treatment. The resulting file containing the time series of behavioural patterns was transferred to a computer program for further analysis.
The following parameters were calculated for the whole test phase (15 minutes): • Number of non-agonistic social acts (N) • Number of aggressive acts (N) • Number of defensive acts (N) • Time spent with non-agonistic social acts (%) • Time spent with aggressive acts (%) • Time spent with defensive acts (%) • Behavioural synchrony
To quantify inter-individual synchrony, coefficients of synchrony were calculated that base on rank correlation coefficients. For this purpose, the time series of behavioural patterns was subdivided into equidistant interval sections (here: 1 s intervals). To calculate synchrony coefficients, the user must define “pattern sets of interest”. Each set contained one or more behavioural patterns that were taken together for the analysis (e.g. “friendly contact” or “all kinds of social interaction”). […]

male Sprague Dawley rats [2] = experiment: Circadian courses of activity, feeding and drinking behaviour; body weight, food and fluid consumption during chronic administration; type: in vivo, rat; conditions: vs vehicle
Procedure: Example 130b as hydrochloride salt was dissolved in tap water in concentrations of 0.03, 0.1 and 0.3 mg/ml. Assuming a daily fluid intake of approx. 30 ml per animal (animal's weight: approx. 300 g), these concentrations should result in doses of approx. 3, 10 and 30 mg/kg/day. The solutions were prepared freshly every day. During chronic administration, solution offer was limited to 40 ml per day for each animal.
Imipramine was dissolved 0.5% Natrosol and administered once daily i.p. for 8 days (test group TG 11, see below) with a dose of 15 mg/kg/day in a volume of 1 ml/kg.
as §1
During the 7 days lasting period of chronic compound administration, animals were kept singly. On the first day they were kept in single Macrolon home cages. On the next day they were transferred to activity monitoring cages and kept there for 3 days. For the following 3 days they returned to their home cages (single housing).
Animals received the test compound chronically via the drinking fluid. The reference compound Imipramine was given i.p. (one administration per day, one hour before the respective tests). Fluid supply was restricted to 40 ml per day for all test groups. On the first day of chronic test compound exposure, animals were kept singly in standard single home cages to enable an individual assessment of test compound intake. On the second day, animals were transferred to infrared monitoring cages for 3 days. Food and fluid offer were the same as in the home cage. Measuring rearing activity near fluid bottles and food grid enabled an assessment of the time structure of food and water (compound) consumption. Behavioural observation started one hour before the beginning of the dark phase (2 p.m.). After 22 hours, body weight, food and fluid consumption were measured. 2 hours later, the next recording started.
Raw data were provided as computer files accompanied by written protocol sheets. As the animals were still adapting to the environment and administration the time courses of the following parameters were calculated only for the last day of registration: • Food and fluid intake (time %) • Number of feeding and […] bouts • Meal pattern parameters reflecting e.g. the duration and recurrence of feeding and drinking bouts • Total distance travelled (cm/min) • Small movements (cm/min) • Distance travelled with rapid locomotion (cm/min) • Distance travelled with slow locomotion (cm/min) • Immobility (time %) • Use of available space (%) • Locomotor stereotypies (score, first hour of the dark phase only) • Rearing (time %) • Number of rearing acts (N) Feeding and Drinking Bouts and Bout-Related Analysis:
On the basis of high-resolution infrared beam recordings, feeding and drinking is identified by means of beam interruption in the upper frame near to the positions of food or water. Feeding or drinking acts are then defined as temporally contingent behavioural pattern separated from each other by intervals not longer than 0.5 seconds. Normally, several acts form a feeding or drinking bout. The intervals within a bout are definitely shorter than between subsequent bouts. A threshold interval can be set to distinguish between intra-bout and inter-bout intervals.
Stereotyped locomotion was assessed by means of statistical comparisons between the observed locomotor sequences (as described by the movement from one of the 4×4 subsquares to another) and a “random walk”. The comparison is performed at 5 different levels:
The coefficient of locomotor stereotypies (SC, in %) at each level has a value of SC=0 when there are no regularities within the movement pattern (random walk). […]

[3] = vs vehicle, Chlordiazepoxide 3 mg/kg i.p., Example 130b low and high dose (0.3 and 3.0 mg/kg p.o.)
[4] = vs vehicle, Example 130b high dose (3.0 mg/kg p.o.)
[5] = circadian registration, Imipramine 15 mg/kg/day i.p., Example 130b approx. 3, 10, 30 mg/kg/day
[6] = Imipramine 15 mg/kg/day i.p., Example 130b hydrochloride approx. 3, 10, 30 mg/kg/day via drinking fluid

NCc1c(-c2ccc(Cl)cc2Cl)ncn1Cc1ccsc1 [Example 130b, (4-(2,4-dichlorophenyl)-1-((thiophen-3-yl)methyl)-1H-imidazol-5-yl)methanamine]
locomotor activity (male Sprague Dawley rats [1]; tetradic encounter, Chlordiazepoxide 3 mg/kg i.p., Example 130b 0.3-3.0 mg/kg p.o.): altered locomotor activity
inter-individual synchrony of behaviour (male Sprague Dawley rats [1]; vs vehicle, Chlordiazepoxide 3 mg/kg i.p., Example 130b 0.3, 1.0, 3.0 mg/kg p.o. (especially the high dose increased synchrony)): strong effects
distance to the encounter mates (male Sprague Dawley rats [1]; [3]): significantly higher distance
number of defensive acts (male Sprague Dawley rats [1]; [3]): statistically significant increase
time spent in a distance of 75-100 cm to encounter mates (male Sprague Dawley rats [1]; vs vehicle, Chlordiazepoxide 3 mg/kg i.p., Example 130b low and medium dose (0.3 and 1.0 mg/kg p.o.)): higher amount
time spent in a distance of 25-50 cm to encounter mates (male Sprague Dawley rats [1]; vs vehicle, Chlordiazepoxide 3 mg/kg i.p., Example 130b low dose (0.3 mg/kg p.o.)): significantly lower amount of time
time spent with friendly (non-agonistic) social behaviour (male Sprague Dawley rats [1]; vs vehicle, Chlordiazepoxide 3 mg/kg i.p., Example 130b medium dose (1.0 mg/kg p.o.)): tended to increase
time spent in a distance of 50-75 cm to encounter mates (male Sprague Dawley rats [1]; [4]): higher amount
time spent in a distance of less than 25 cm to encounter mates (male Sprague Dawley rats [1]; [4]): significantly lower amount of time
time spent in the centre of the open field (male Sprague Dawley rats [1]; [4]): significantly increased
usage of available space (male Sprague Dawley rats [1]; [4]): significantly increased
distance travelled during the first five minutes of the test (male Sprague Dawley rats [1]; vs vehicle, Example 130b low and high dose (0.3 and 3.0 mg/kg p.o.)): statistically significant increase
time spent in a distance of more than 100 cm to encounter mates (male Sprague Dawley rats [1]; vs vehicle, Example 130b low dose (0.3 mg/kg p.o.)): higher amount
cumulated number of drinking bouts (male Sprague Dawley rats [2]; 22 hours of measurement, Example 130b approx. 3, 10, 30 mg/kg/day): dose-dependently reached a lower total number
horizontal and vertical (locomotor) activity (male Sprague Dawley rats [2]; [5]): no statistically significant effects
time accessing food and water (fluid) (male Sprague Dawley rats [2]; [5]): did not differ
locomotor stereotypies (stereotypy index) (male Sprague Dawley rats [2]; first hour of the dark phase, Imipramine: level 2, 3 and 4 stereotypies, Example 130b: usage of available space or stereotypy index): no statistically significant effects
body weight (gain) (male Sprague Dawley rats [2]; [6]): not affected
fluid intake (male Sprague Dawley rats [2]; [6]): dose-dependently led to a reduction
food intake (male Sprague Dawley rats [2]; [6]): not affected
